In patent US20060241114A1, “Derivatives of azasugars as anticancer agents” (priority 2003, published 2006):

Tests used:
[1] = test system: MCF7 (breast adenocarcinoma); experiment: In vitro growth inhibition screen (sulphorhodamine B), MCF7; format: cell-based, human; conditions: MCF7 cells, incubated for 48 hours, sulphorhodamine B dye; read-out: GI50 (concentration which inhibits the cell growth by 50%), MCF7 Breast adenocarcinoma
Summary of the method: (§1)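 SRB assay, 48 h treatment, RPMI 1640 + 10% FCS, 37° C, 5% CO2; dose range ≧100 μM–10 nM in ten-fold steps; OD 490 nm; GI50 derived.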

LOX (melanoma) = experiment: In vitro growth inhibition screen (sulphorhodamine B), LOX; format: cell-based, human; conditions: LOX cells, incubated for 48 hours, sulphorhodamine B dye; read-out: GI50 (concentration which inhibits the cell growth by 50%), LOX Melanoma
Summary of the method: as §1

[2] = test system: DU145 (prostate carcinoma); experiment: In vitro growth inhibition screen (sulphorhodamine B), DU145; format: cell-based, human; conditions: DU145 cells, incubated for 48 hours, sulphorhodamine B dye; read-out: GI50 (concentration which inhibits the cell growth by 50%), DU145 Prostate carcinoma
Summary of the method: as §1

[3] = test system: U251 (human glioblastoma); experiment: In vitro growth inhibition screen (sulphorhodamine B), U251; format: cell-based; conditions: U251 cells, incubated for 48 hours, sulphorhodamine B dye; read-out: GI50 (concentration which inhibits the cell growth by 50%), U251 Human glioblastoma astrocytoma
Summary of the method: as §1

[4] = test system: HT29 (colorectal adenocarcinoma); experiment: In vitro growth inhibition screen (sulphorhodamine B), HT29; format: cell-based, human; conditions: HT29 cells, incubated for 48 hours, sulphorhodamine B dye; read-out: GI50 (concentration which inhibits the cell growth by 50%), HT29 Colorectal adenocarcinoma
Summary of the method: as §1

[5] = test system: MCF7ADR (adriamycin resistant breast adenocarcinoma); experiment: In vitro growth inhibition screen (sulphorhodamine B), MCF7ADR; format: cell-based, human; conditions: MCF7ADR cells, incubated for 48 hours, sulphorhodamine B dye; read-out: GI50 (concentration which inhibits the cell growth by 50%), MCF7ADR Adriamycin Resistant Breast adenocarcinoma
Summary of the method: as §1

Compound `CCCN1C[C@H](OCc2ccccc2)[C@@H](OCc2ccccc2)[C@H](OCc2ccccc2)[C@H]1CNC(=O)Nc1ccc(Cl)cc1` [Compound No. 36] has a GI50 [1] of 0.3 µM, a GI50 (LOX (melanoma)) of 0.9 µM and a GI50 [2] of 16.7 µM. It also gave a GI50 [3] of 11.7 µM, a GI50 [4] of 0.8 µM and a GI50 [5] of 19.1 µM.
`CCCN1C[C@H](OCc2ccccc2)[C@@H](OCc2ccccc2)[C@H](OCc2ccccc2)[C@H]1CNC(=O)Nc1ccc(F)cc1F` [Compound No. 37] gave a GI50 [1] of 10.3 µM, a GI50 (LOX (melanoma)) of 5.1 µM and a GI50 [2] of 11.1 µM. For the same compound, the GI50 [3] was 15.4 µM, the GI50 [4] was 2.8 µM and the GI50 [5] was 17.3 µM.
In the case of `CCCN1C[C@H](OCc2ccccc2)[C@@H](OCc2ccccc2)[C@H](OCc2ccccc2)[C@H]1CNC(=S)Nc1ccc(Cl)cc1` [Compound No. 39, 2,3,4-Tri-O-benzyl-6-N-{[4-chlorophenyl]aminothiocarbonylamino}-1,5-dideoxy-1,5-imino-N-propyl glucitol], the GI50 [1] is reported as 16.1 µM, the GI50 (LOX (melanoma)) is reported as 103 µM and the GI50 [2] is reported as 72.7 µM. It also gave a GI50 [3] of 31.9 µM, a GI50 [4] of 20.6 µM and a GI50 [5] of 52.7 µM.
With `CCCN1C[C@H](OCc2ccccc2)[C@@H](OCc2ccccc2)[C@H](OCc2ccccc2)[C@H]1CNC(=O)Nc1ccc(F)cc1` [Compound No. 40, 2,3,4-Tri-O-benzyl-6-N-{[4-fluorophenyl]aminocarbonylamino}-1,5-dideoxy-1,5-imino-N-propyl glucitol] the GI50 [1] was 9.7 µM, the GI50 (LOX (melanoma)) was 27.2 µM and the GI50 [2] was 35.7 µM. The GI50 [3] was 20.1 µM, the GI50 [4] was 2 µM and the GI50 [5] was 18.4 µM.
In the case of `C=CCN1C(=O)C(OCc2ccccc2)C(OCc2ccccc2)C(OCc2ccccc2)C1COC(=O)Nc1ccc(Cl)cc1` [Compound No. 41, N-Allyl-6-O-(4-chlorophenylcarbamate)-2,3,4-tri-O-benzyl-D-gluco-δ-lactam], the GI50 [1] is reported as 109 µM, the GI50 (LOX (melanoma)) is reported as over 664 µM and the GI50 [2] is reported as 142 µM. The GI50 [3] was over 664 µM, the GI50 [4] was 71.2 µM and the GI50 [5] was over 664 µM.
Compound `C=CCN1C(=O)[C@H](OCc2ccccc2)[C@@H](OCc2ccccc2)[C@H](OCc2ccccc2)[C@H]1COC(=S)Nc1ccc2ccccc2c1` [Compound No. 42, N-Allyl-2,3,4-Tri-O-benzyl-6-(2-naphthylithiocarbamate)-D-gluco-δ-lactam] has a GI50 [1] of 232 µM, a GI50 (LOX (melanoma)) of over 373 µM and a GI50 [2] of 175 µM. For the same compound, the GI50 [3] was over 373 µM, the GI50 [4] was 103 µM and the GI50 [5] was over 373 µM.
`CCCN1C(=O)[C@H](O)[C@@H](O)[C@H](O)[C@H]1COC(=O)Nc1ccccc1` [Compound No. 43, N-Propyl-6-(phenylcarbamate)-N-propyl-D-gluco-δ-lactam] was tested, and the GI50 [1] was 115 µM, the GI50 (LOX (melanoma)) was 161 µM and the GI50 [2] was 226 µM. It also gave a GI50 [3] of 235 µM, a GI50 [4] of 208 µM and a GI50 [5] of 280 µM.
`C=CCN1C[C@H](OCc2ccccc2)[C@@H](OCc2ccccc2)[C@H](OCc2ccccc2)[C@H]1COC(=O)Nc1ccc(Cl)cc1` [Compound No. 44, N-Allyl-2,3,4-tri-O-benzyl-6-{p-chlorophenylcarbamate}-1,5-dideoxy-1,5-imino glucitol] was tested, and the GI50 [1] was 2.3 µM, the GI50 (LOX (melanoma)) was 8.7 µM and the GI50 [2] was 88.5 µM. For the same compound, the GI50 [3] was 29.8 µM, the GI50 [4] was 29.2 µM and the GI50 [5] was 7.5 µM.
Work on `C=CCN1C(=O)[C@H](OCc2ccccc2)[C@@H](OCc2ccccc2)[C@H](OCc2ccccc2)[C@H]1COC(=O)c1cccs1` [Compound No. 45] yielded a GI50 [1] of 397 µM, a GI50 (LOX (melanoma)) of over 419 µM and a GI50 [2] of 148 µM. For the same compound, the GI50 [3] was over 419 µM, the GI50 [4] was 92.9 µM and the GI50 [5] was over 419 µM.
Compound `CCCN1C(=O)[C@H](OCc2ccccc2)[C@@H](OCc2ccccc2)[C@H](OCc2ccccc2)[C@H]1CNC(=O)c1cccs1` [Compound No. 46, 2,3,4-Tri-O-benzyl-N-propyl-6-{[2-thiophene]carboxamido}-D-gluco-δ-lactam] has a GI50 [1] of 18.4 µM, a GI50 (LOX (melanoma)) of 178 µM and a GI50 [2] of 83.8 µM. It also gave a GI50 [3] of 105 µM, a GI50 [4] of 3.3 µM and a GI50 [5] of 83.4 µM.
`CCCN1C(=O)[C@H](OCc2ccccc2)[C@@H](OCc2ccccc2)[C@H](OCc2ccccc2)[C@H]1CNC(=O)c1ccc(F)cc1F` [Compound No. 47, 2,3,4-Tri-O-benzyl-6-N-{[2,4-difluorophenyl]carboxamido}-N-propyl-D-gluco-δ-lactam] gave a GI50 [1] of 14.7 µM, a GI50 (LOX (melanoma)) of 51.4 µM and a GI50 [2] of 153 µM. It also gave a GI50 [3] of 155 µM, a GI50 [4] of 49.3 µM and a GI50 [5] of 68.2 µM.
`CCCN1C(=O)[C@H](OCc2ccccc2)[C@@H](OCc2ccccc2)[C@H](OCc2ccccc2)[C@H]1CNC(=O)C12CC3CC(CC(C3)C1)C2` [Compound No. 48, 2,3,4-Tri-O-benzyl-6-(adamantanecarboxamido}-N-propyl-D-gluco-δ-lactam] was tested, and the GI50 [1] was 18.8 µM, the GI50 (LOX (melanoma)) was 31.8 µM and the GI50 [2] was 104 µM. The GI50 [3] was 12.9 µM, the GI50 [4] was 67.9 µM and the GI50 [5] was 58.4 µM.
`CCCN1C(=O)[C@H](O)[C@@H](O)[C@H](O)[C@H]1CNC(=O)Nc1ccc(F)cc1F` [Compound No. 49, 6-N-{[2,4Difluorophenyl]aminocarbonylamino}-N-propyl-D-gluco-δ-lactam] was tested, and the GI50 [1] was 177 µM, the GI50 (LOX (melanoma)) was 133 µM and the GI50 [2] was 352 µM. The GI50 [3] was 122 µM, the GI50 [4] was 131 µM and the GI50 [5] was 251 µM.
`CCCN1C(=O)[C@H](O)[C@@H](O)[C@H](O)[C@H]1CNC(=O)C12CC3CC(CC(C3)C1)C2` [Compound No. 50, 6-(Adamantanecarboxamido)-N-propyl-D-gluco-δ-lactam] showed a GI50 [1] of 82.8 µM, a GI50 (LOX (melanoma)) of 97.2 µM and a GI50 [2] of 108 µM. For the same compound, the GI50 [3] was 144 µM, the GI50 [4] was 38.1 µM and the GI50 [5] was 138 µM.
With `CCCN1C(=O)[C@H](OCc2ccccc2)[C@@H](OCc2ccccc2)[C@H](OCc2ccccc2)[C@H]1CNC(=O)CCl` [Compound No. 52, 2,3,4-Tri-O-benzyl-6-N-{2-[chloro]-acetyl}-N-propyl-D-gluco-δ-lactam] the GI50 [1] was 6 µM, the GI50 (LOX (melanoma)) was 0.9 µM and the GI50 [2] was 7.2 µM. The GI50 [3] was 2.9 µM, the GI50 [4] was 6.8 µM and the GI50 [5] was 0.8 µM.
For `CCCN1C(=O)[C@H](OCc2ccccc2)[C@@H](OCc2ccccc2)[C@H](OCc2ccccc2)[C@H]1CNC(=O)Cn1cncn1` [Compound No. 53, 2,3,4-Tri-O-benzyl-N-propyl-6-{2-[triazolyl]-acetyl}-D-gluco-δ-lactam], the GI50 [1] was 6.6 µM, the GI50 (LOX (melanoma)) was 8.3 µM and the GI50 [2] was 8.8 µM. It also gave a GI50 [3] of 12.9 µM, a GI50 [4] of 9.3 µM and a GI50 [5] of 10 µM.
`CCCN1C(=O)[C@H](OCc2ccccc2)[C@@H](OCc2ccccc2)[C@H](OCc2ccccc2)[C@H]1CNC(=O)CN1CCN(c2ncccn2)CC1` [Compound No. 54, 2,3,4-Tri-O-benzyl-6-N-{2-[4-(pyrimidyl)piperazinyl]acetyl}-N-propyl-D-gluco-δ-lactam] gave a GI50 [1] of 4.1 µM, a GI50 (LOX (melanoma)) of 2.3 µM and a GI50 [2] of 5 µM. For the same compound, the GI50 [3] was 3.2 µM, the GI50 [4] was 3.6 µM and the GI50 [5] was 6.6 µM.
Compound `CCCN1C(=O)[C@H](OCc2ccccc2)[C@@H](OCc2ccccc2)[C@H](OCc2ccccc2)[C@H]1CNC(=O)CNc1ccc(F)cc1` [Compound No. 55, 2,3,4-Tri-O-benzyl-6-N-{2-[4-fluoroanilino]acetyl}-N-propyl-D-gluco-δ-lactam] has a GI50 [1] of 8.2 µM, a GI50 (LOX (melanoma)) of 3.3 µM and a GI50 [2] of 4.1 µM. It also gave a GI50 [3] of 4.1 µM, a GI50 [4] of 4.7 µM and a GI50 [5] of 10.2 µM.
For `CCCN1C(=O)[C@H](OCc2ccccc2)[C@@H](OCc2ccccc2)[C@H](OCc2ccccc2)[C@H]1COC(=O)CN1C(=O)CCCC1=O` [Compound No. 56, 2,3,4-Tri-O-benzyl-6-{2-[2,6-diketopiperidino]acetyl}-N-propyl-D-gluco-δ-lactam], the GI50 [1] was 40.3 µM, the GI50 (LOX (melanoma)) was 12 µM and the GI50 [2] was 10.7 µM. It also gave a GI50 [3] of 40.5 µM, a GI50 [4] of 22.8 µM and a GI50 [5] of 24.5 µM.
`CCCN1C(=O)[C@H](OCc2ccccc2)[C@@H](OCc2ccccc2)[C@H](OCc2ccccc2)[C@H]1CNC(=O)Cn1ncn(-c2ccc(Cl)cc2)c1=O` [Compound No. 57, 2,3,4-Tri-O-benzyl-6-N-{2-[4-chlorophenyl-3-(2H,4H)-1,2,4-triazol-3-onyl]acetyl}-N-propyl-D-gluco-δ-lactam] gave a GI50 [1] of 20.1 µM, a GI50 (LOX (melanoma)) of 25.1 µM and a GI50 [2] of 64.4 µM. The GI50 [3] was 154 µM, the GI50 [4] was 22.7 µM and the GI50 [5] was 247 µM.
Work on `CCCN1C(=O)[C@H](OCc2ccccc2)[C@@H](OCc2ccccc2)[C@H](OCc2ccccc2)[C@H]1CNC(=O)CN1CCN(c2ccc(F)cc2)CC1` [Compound No. 58, 2,3,4-Tri-O-benzyl-6-N-{2-[4-(4-fluorophenyl)-piperazin-1-yl]acetyl}-N-propyl-D-gluco-δ-lactam] yielded a GI50 [1] of 8.2 µM, a GI50 (LOX (melanoma)) of 2.8 µM and a GI50 [2] of 19.4 µM. It also gave a GI50 [3] of 13.4 µM, a GI50 [4] of 7.9 µM and a GI50 [5] of 10.2 µM.
`CCCN1C(=O)C(OCc2ccccc2)C(OCc2ccccc2)C(OCc2ccccc2)C1CNC(=O)CN1CCN(C)CC1` [Compound No. 59, 2,3,4-Tri-O-benzyl-6-N-{2-[N-(methyl)piperazin-1-yl]acetyl}-N-propyl-D-gluco-δ-lactam] gave a GI50 [1] of 8.1 µM, a GI50 (LOX (melanoma)) of 3.8 µM and a GI50 [2] of 12.2 µM. The GI50 [3] was 12.6 µM, the GI50 [4] was 1.9 µM and the GI50 [5] was 25.3 µM.
